Data as given in US9393221B2, “Methods and compounds for reducing intracellular lipid storage” (THE GENERAL HOSPITAL CORPORATION, priority 2011, dated 2016).
Structures can show the parent of a compound that is named as a salt. Where two headings read alike, the source gives them in different places.

System: ATGL-KO iPSCs
Assay: High throughput iPSC chemical screening, Oil Red O (ORO) lipid accumulation; as to Z-score: test concentration or dose not given here
Format: cell-based, mouse
Settings: for Rank in normalized ORO score from screen: glycolytic switch compounds
[1] = normalized ORO level vs DMSO-treated cells, compound present during 7 days differentiation, 96-well, negative = decrease in lipid accumulation

| Compound | Z-score [1] | further results |
| --- | --- | --- |
| C[C@@H]1O[C@@H](O[C@@H]2C=C3CC[C@@H]4[C@H](CC[C@]5(C)[C@@H](c6ccc(=O)oc6)CC[C@]45O)[C@@]3(C)CC2)[C@H](O)[C@H](O)[C@H]1O [Proscillaridin A] | −1.0698 |  |
| C[C@@H](O)[C@H]1C(=O)N2C(C(=O)O)=C(SCCN=CN)C[C@H]12 [Imipenem] | −0.7436 |  |
| Iproniazide phosphate | −0.4106 |  |
| CC(=O)O[C@]1(C(C)=O)CC[C@H]2[C@@H]3C=C(C)C4=CC(=O)CC[C@@H]4[C@H]3CC[C@@]21C [Nomegestrol acetate] | 1.552 |  |
| CCC1(C)CC(=O)NC(=O)C1 [Bemegride] | −0.3526 |  |
| COc1ccccc1N1CCN(CC(O)COc2cccc3ccccc23)CC1 (stereo not drawn) [Naftopidil dihydrochloride] | −0.9212 |  |
| NC(=O)N1c2ccccc2C=Cc2ccccc21 [Carbamazepine] | 0.2892 |  |
| NS(=O)(=O)c1cc(Cl)c(Cl)c(S(N)(=O)=O)c1 [Dichlorphenamide] | 0.1624 |  |
| Cc1[nH]c(=O)c(C#N)cc1-c1ccncc1 [Milrinone] | −0.2851 |  |
| CC(=O)N[C@@H](CC(=O)N[C@@H](CCC(=O)O)C(=O)O)C(=O)O [Spaglumic acid] | 0.9666 |  |
| CN1C[C@H](CO)C=C2c3cccc4[nH]cc(c34)C[C@H]21 [Lysergol] | −0.3809 |  |
| O=C(O)[C@]1(O)C[C@@H](O)[C@@H](O)[C@H](O)C1 [Quinic acid] | 1.0976 |  |
| O=C(CCCN1CCN(c2ccccn2)CC1)c1ccc(F)cc1 [Azaperone] | 1.543 |  |
| C1COC(NC(C2CC2)C2CC2)=N1 [Rilmenidine hemifumarate] | −1.0936 |  |
| COc1ccc(C(=O)c2ccccc2)c(O)c1 [Oxybenzone] | −1.1732 |  |
| CN/C(=N/CCSCc1nc[nH]c1C)NC#N [Cimetidine] | −0.2141 |  |
| C=CC1=C(C(=O)O)N2C(=O)[C@@H](NC(=O)/C(=N\OCC(=O)O)c3csc(N)n3)[C@H]2SC1 [Cefixime] | 1.521 |  |
| Cl.OC(CCN1CCCCC1)(c1ccccc1)C1CCCCC1 (stereo not drawn) [Trihexyphenidyl-D,L Hydrochloride] | 1.258 |  |
| C[C@@]12C(=O)OC(=O)[C@]1(C)[C@H]1CC[C@@H]2O1 [Cantharidin] | 18.9862 |  |
| COc1cc2nc(N3CCN(C(=O)C4COc5ccccc5O4)CC3)nc(N)c2cc1OC (stereo not drawn) [Doxazosin mesylate] | −1.0121 |  |
| Cn1c(=O)c2c(ncn2CCO)n(C)c1=O [Etofylline] | −0.8406 |  |

| Compound | Z-score [1] | further results |
| --- | --- | --- |
| CNCC(O)c1ccc(O)cc1 (racemic) [(+,−)-Synephrine] | −1.0448 |  |
| Mephentermine hemisulfate | 0.04889 |  |
| CC1=NCCc2c1[nH]c1cc(O)ccc21.Cl.O.O [Harmalol hydrochloride dihydrate] | 0.3888 |  |
| CC(=O)Nc1ccc(OCC(O)CNC(C)C)cc1 (stereo not drawn) [Practolol] | −0.3373 |  |
| CN(C)C/C=C(/c1ccc(Br)cc1)c1cccnc1 [Zimelidine dihydrochloride monohydrate] | −0.7577 |  |
| CCCNC(C)(C)COC(=O)c1ccccc1 [Meprylcaine hydrochloride] | −0.9597 |  |
| CCc1oc2ccccc2c1C(=O)c1cc(Br)c(O)c(Br)c1 [Benzbromarone] | −0.349 |  |
| CC(COc1ccccc1)N(CCCl)Cc1ccccc1 (stereo not drawn) [Phenoxybenzamine hydrochloride] | 0.2031 | Rank in normalized ORO score from screen: 702 |
| CN(C)[C@@H]1C(O)=C(C(N)=O)C(=O)[C@@]2(O)C(O)=C3C(=O)c4c(O)cccc4[C@@](C)(O)[C@H]3[C@H](O)[C@@H]12 [Oxytetracycline dihydrate] | 1.185 |  |
| Cc1oncc1C(=O)Nc1ccc(C(F)(F)F)cc1 [Leflunomide] | 1.258 |  |
| NNC(=O)c1ccncc1 [Isoniazid] | 0.9473 |  |
| CNC(=C[N+](=O)[O-])NCCSCc1ccc(CN(C)C)o1 [Ranitidine hydrochloride] | −0.5642 |  |
| CC(NCCC(c1ccccc1)c1ccccc1)c1ccccc1 (stereo not drawn) [Fendiline hydrochloride, reference compound] | −2.53 | Rank in normalized ORO score from screen: 1 |
| C[C@H](CCC(=O)NCC(=O)O)[C@H]1CC[C@H]2[C@@H]3[C@H](O)C[C@@H]4C[C@H](O)CC[C@]4(C)[C@H]3C[C@H](O)[C@]12C [Glycocholic acid] | −0.6342 |  |
| Cn1cc[nH]c1=S [Methimazole] | 0.6934 |  |
| COc1cc(NS(=O)(=O)c2ccc(N)cc2)nc(OC)n1 [Sulfadimethoxine] | 0.4077 |  |
| COc1ccc2c3c([nH]c2c1)[C@H]1C[C@H]2[C@H](C[C@@H](O)[C@H](OC)[C@H]2C(=O)O)CN1CC3.Cl [Reserpinic acid hydrochloride] | −1.3417 |  |
| CCC(=O)OCC(=O)[C@@]1(OC(=O)CC)[C@@H](C)C[C@H]2[C@@H]3CCC4=CC(=O)C=C[C@]4(C)[C@@]3(Cl)[C@@H](O)C[C@@]21C [Beclomethasone dipropionate] | −0.2791 |  |
| CCCC(C(=O)OCCN(CC)CC)(c1ccccc1)c1ccccc1 [Proadifen hydrochloride] | −1.1876 |  |
| COc1cc(NS(=O)(=O)c2ccc(N)cc2)ncn1 [Sulfamonomethoxine] | −1.3171 |  |
| N=C(N)N1CCc2ccccc2C1 [Debrisoquin sulfate] | 0.2228 |  |

| Compound | Z-score [1] | further results |
| --- | --- | --- |
| CC(CCc1ccc(O)cc1)NCCc1ccc(O)c(O)c1 (stereo not drawn) [Dobutamine hydrochloride] | −0.4732 |  |
| CC(C)(C)NCC(O)c1cc(Cl)c(N)c(Cl)c1 (stereo not drawn) [Clenbuterol hydrochloride] | 0.2391 |  |
| Cyanocobalamin | −1.3236 |  |
| CC(C)NCC(O)c1cc(O)cc(O)c1.CC(C)NCC(O)c1cc(O)cc(O)c1.O=S(=O)(O)O (stereo not drawn) | −0.3842 |  |
| COc1ccc(CC2c3cc(OC)c(OC)cc3CCN2C)cc1OC (racemic) [Laudanosine (R,S)] | −0.5493 |  |
| [H]/N=C(/N)NS(=O)(=O)c1ccc(N)cc1 [Sulfaguanidine] | 1.05 |  |
| COc1cc2c(c(OC)c1OC)-c1ccc(O)c(=O)cc1C(N)CC2 (stereo not drawn) [Trimethylcolchicinic acid] | 0.4127 |  |
| c1ccc2[nH]c(-c3cscn3)nc2c1 [Tiabendazole] | −0.3752 |  |
| CC(C)(Oc1ccc(C2CC2(Cl)Cl)cc1)C(=O)O (stereo not drawn) [Ciprofibrate] | −0.5993 |  |
| CCN(CC)C(=O)N[C@H]1C[C@@H]2c3cccc4[nH]cc(c34)C[C@H]2N(C)C1.O=C(O)/C=C\C(=O)O [S(−)-terguride hydrogen maleate] | −1.0498 |  |
| Cn1c([N+](=O)[O-])cnc1COC(N)=O [Ronidazole] | 1.5256 |  |
| Beta-Escin | −1.7261 |  |
| Fc1ccc(C(c2ccc(F)cc2)N2CCN(C/C=C/c3ccccc3)CC2)cc1 [Flunarizine dihydrochloride] | 0.2207 |  |
| CC(C)Cc1ccc([C@H](C)C(=O)O)cc1 [S-(+)-ibuprofen] | −1.4076 |  |
| CC(C)NCC(O)c1ccc2ccccc2c1 (stereo not drawn) [Pronethalol hydrochloride] | −0.9002 |  |
| CC/C(=C(\c1ccccc1)c1ccc(OCCN(C)C)cc1)c1ccccc1 [Tamoxifen citrate] | −1.1882 | Rank in normalized ORO score from screen: 130 |
| Cc1c(OCC(F)(F)F)ccnc1C[S+]([O-])c1nc2ccccc2[nH]1 (stereo not drawn) [Lansoprazole] | −0.4696 |  |
| CNCCC(Oc1ccc(C(F)(F)F)cc1)c1ccccc1 (stereo not drawn) [Fluoxetine hydrochloride] | −1.0533 |  |
| COc1ccc2cc([C@H](C)C(=O)O)ccc2c1 [Naproxen] | −0.3678 |  |
| CCN(CC)C(=O)N1CCN(C)CC1 [Diethylcarbamazine citrate] | −1.1872 |  |
| O=C(O)CCCC[C@@H]1SC[C@@H]2NC(=O)N[C@@H]21 [Biotin] | 0.1016 |  |

| Compound | Z-score [1] | further results |
| --- | --- | --- |
| COc1cc(N)c(Cl)cc1C(=O)NC1CCN(Cc2ccccc2)CC1 [Clebopride maleate] | −0.108 |  |
| CC(N)C(O)c1ccccc1 (stereo not drawn) [Phenylpropanolamine hydrochloride] |  | Z-score: 0.2625 |
| NCc1ccccc1CC(=O)N[C@@H]1C(=O)N2C(C(=O)O)=C(CSc3nnnn3CC(=O)O)CS[C@H]12 [Ceforanide] | 1.929 |  |
| CC1CS(=O)(=O)CCN1/N=C/c1ccc([N+](=O)[O-])o1 (stereo not drawn) [Nifurtimox] | 0.2485 |  |
| COc1ccc(OC)c(C(O)C(C)N)c1 (stereo not drawn) [Methoxamine hydrochloride] | 0.4239 |  |
| COc1ccc(CN2CCNCC2)c(OC)c1OC [Trimetazidine dihydrochloride] | 0.9654 |  |
| NC(=O)OCC(O)COc1ccc(Cl)cc1 (stereo not drawn) [Chlorphensin carbamate] | 0.4583 |  |
| NC(=O)CN1CCCC1=O [Piracetam] | 0.8038 |  |
| CCN(CC)C(=O)c1ccc(O)c(OC)c1 [Ethamivan] | −0.565 |  |
| CCC(=O)OCC(=O)[C@@]1(OC(=O)CC)[C@H](C)C[C@H]2[C@H]3[C@H]([C@@H](O)C[C@@]21C)[C@@]1(C)C=CC(=O)C=C1C[C@H]3Cl [Alclometasone dipropionate] | 0.9375 |  |
| CC(C)(CO)[C@@H](O)C(=O)NCCCO [Panthenol (D)] | −0.069 |  |
| NS(=O)(=O)c1cc2c(cc1C(F)(F)F)NC(Cc1ccccc1)NS2(=O)=O (stereo not drawn) [Bendroflumethiazide] | 2.297 |  |
| C[N+](C)(C)CCOC(N)=O [Carbachol] | 0.7384 |  |
| CCOc1ccc2c(c1)C(C)=CC(C)(C)N2 [Ethoxyquin] | −0.0471 |  |
| CN1CCc2cc3c(cc2C1O)OCO3 (stereo not drawn) [Hydrastinine hydrochloride] | −0.5549 |  |
| C#C[C@]1(O)CC[C@H]2[C@@H]3CCC4=CC(=O)CC[C@@H]4[C@H]3CC[C@@]21C [Norethindrone] | −0.6688 |  |
| CCc1nc(N)nc(N)c1-c1ccc(Cl)cc1 [Pyrimethamine] | 2.959 |  |
| CN1CCN(C(c2ccccc2)c2ccccc2)CC1 [Cyclizine hydrochloride] | −0.9231 |  |
| S(−)Eticlopride hydrochloride | −0.7335 |  |
| OC(CCN1CCCCC1)(c1ccccc1)C1CC2C=CC1C2 (stereo not drawn) [Biperiden hydrochloride] | −1.1752 | Rank in normalized ORO score from screen: 135 |
